Experimental data: article PMC7176092, “Development of the first in vivo GPR17 ligand through an iterative drug discovery pipeline: A novel disease-modifying strategy for multiple sclerosis” (PLoS ONE, 2020)
Several values for one entry are separate records, joined by “and”; a condition that tells them apart may be missing. Identical values can stand only once. Like-named read-outs stand apart in the source and are kept apart here.

Tests used:
ADR2A = biological target: T1, ADR2A (Homo sapiens, UniProt P08913); assay: Binding assay ADR2A; details: 100 nM
T1 construct: Eurofins Cerep (external service)
T1 sequence (P08913 1-465): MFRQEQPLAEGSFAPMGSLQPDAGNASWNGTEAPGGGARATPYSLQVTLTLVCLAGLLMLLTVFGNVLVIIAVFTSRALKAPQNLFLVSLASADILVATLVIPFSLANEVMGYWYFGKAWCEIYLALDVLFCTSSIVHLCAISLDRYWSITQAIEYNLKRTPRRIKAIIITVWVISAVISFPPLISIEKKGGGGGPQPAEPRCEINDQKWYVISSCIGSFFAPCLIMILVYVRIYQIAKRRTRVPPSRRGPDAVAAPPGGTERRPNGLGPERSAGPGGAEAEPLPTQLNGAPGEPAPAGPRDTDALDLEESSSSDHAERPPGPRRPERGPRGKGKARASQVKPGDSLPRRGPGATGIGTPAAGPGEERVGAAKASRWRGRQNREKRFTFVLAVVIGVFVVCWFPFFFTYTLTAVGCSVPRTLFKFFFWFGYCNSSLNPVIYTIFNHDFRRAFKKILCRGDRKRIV

ADR2 = biological target: T2, ADR2 (Homo sapiens, UniProt P07550); assay: Binding assay ADR2 (reference ICI 118551); details: 100 nM
T2 construct: Eurofins Cerep (external service)
T2 sequence (P07550 whole entry): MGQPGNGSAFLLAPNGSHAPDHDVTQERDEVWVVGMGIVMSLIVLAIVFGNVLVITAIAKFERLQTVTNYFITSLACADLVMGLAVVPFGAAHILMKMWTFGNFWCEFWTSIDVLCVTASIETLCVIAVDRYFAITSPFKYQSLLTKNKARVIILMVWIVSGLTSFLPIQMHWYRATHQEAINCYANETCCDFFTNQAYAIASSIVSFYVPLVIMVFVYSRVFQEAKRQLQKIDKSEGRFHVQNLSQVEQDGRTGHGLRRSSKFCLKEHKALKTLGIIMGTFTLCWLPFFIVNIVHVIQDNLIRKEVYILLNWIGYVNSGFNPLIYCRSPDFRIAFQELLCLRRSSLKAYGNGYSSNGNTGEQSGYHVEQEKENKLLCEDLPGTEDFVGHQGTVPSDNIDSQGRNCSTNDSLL

ADR3 = biological target: T3, ADR3 (Homo sapiens, UniProt P13945); assay: Binding assay ADR3 (reference Alprenolol); details: 100 nM
T3 construct: Eurofins Cerep (external service)
T3 sequence (P13945 whole entry): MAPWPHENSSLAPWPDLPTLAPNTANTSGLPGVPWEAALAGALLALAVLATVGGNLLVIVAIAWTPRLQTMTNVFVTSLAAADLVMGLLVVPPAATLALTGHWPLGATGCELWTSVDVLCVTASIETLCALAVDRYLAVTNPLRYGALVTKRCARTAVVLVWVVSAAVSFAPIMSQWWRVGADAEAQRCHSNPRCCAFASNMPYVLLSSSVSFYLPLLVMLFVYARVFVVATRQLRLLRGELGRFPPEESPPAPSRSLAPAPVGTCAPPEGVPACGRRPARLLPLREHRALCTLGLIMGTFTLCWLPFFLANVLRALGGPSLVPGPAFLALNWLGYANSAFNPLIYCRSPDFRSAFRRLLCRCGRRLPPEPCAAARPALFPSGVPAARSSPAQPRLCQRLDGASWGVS

CCR3 = biological target: T4, CCR3 (Homo sapiens, UniProt P51677); assay: Cellular functional assay CCR3
T4 sequence (P51677 1-355): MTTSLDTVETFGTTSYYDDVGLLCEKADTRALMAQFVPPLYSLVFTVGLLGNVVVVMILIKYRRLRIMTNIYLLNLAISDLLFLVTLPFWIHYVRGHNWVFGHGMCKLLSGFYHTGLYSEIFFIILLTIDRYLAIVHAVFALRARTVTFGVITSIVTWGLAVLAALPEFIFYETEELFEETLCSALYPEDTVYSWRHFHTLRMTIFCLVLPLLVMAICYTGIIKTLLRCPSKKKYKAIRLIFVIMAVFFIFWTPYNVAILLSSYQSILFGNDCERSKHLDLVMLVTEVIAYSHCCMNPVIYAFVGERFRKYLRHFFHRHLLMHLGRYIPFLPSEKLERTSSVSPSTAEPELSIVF

CCR8 = CCR8 (Homo sapiens, UniProt P51685); assay: Cellular functional assay CCR8
Sequence of CCR8 (P51685 whole entry): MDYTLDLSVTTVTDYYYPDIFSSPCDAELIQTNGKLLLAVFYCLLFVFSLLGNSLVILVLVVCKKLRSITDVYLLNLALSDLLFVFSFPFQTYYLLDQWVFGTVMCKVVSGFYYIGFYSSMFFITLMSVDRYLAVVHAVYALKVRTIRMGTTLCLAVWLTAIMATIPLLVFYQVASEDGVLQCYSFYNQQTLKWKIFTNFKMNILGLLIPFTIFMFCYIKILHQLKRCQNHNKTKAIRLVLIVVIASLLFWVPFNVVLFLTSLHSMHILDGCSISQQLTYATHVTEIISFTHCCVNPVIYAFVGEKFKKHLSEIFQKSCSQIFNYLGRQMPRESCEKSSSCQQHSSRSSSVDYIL

CXCR6 = CXCR6 (Homo sapiens, UniProt O00574); assay: Cellular functional assay CXCR6
Sequence of CXCR6 (O00574 whole entry): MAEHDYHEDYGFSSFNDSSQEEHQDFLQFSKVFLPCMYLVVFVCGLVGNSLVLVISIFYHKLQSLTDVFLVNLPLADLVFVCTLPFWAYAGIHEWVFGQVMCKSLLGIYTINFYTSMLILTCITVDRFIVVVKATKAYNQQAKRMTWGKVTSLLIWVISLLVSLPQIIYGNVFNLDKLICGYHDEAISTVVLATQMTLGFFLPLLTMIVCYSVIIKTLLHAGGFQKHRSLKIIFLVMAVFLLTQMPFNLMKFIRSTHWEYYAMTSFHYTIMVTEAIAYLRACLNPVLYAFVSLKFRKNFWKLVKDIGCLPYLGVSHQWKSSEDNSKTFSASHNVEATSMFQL

CCR9 = biological target: T5, CCR9 (Homo sapiens, UniProt P51686); assay: Cellular functional assay CCR9
T5 sequence (P51686 1-369): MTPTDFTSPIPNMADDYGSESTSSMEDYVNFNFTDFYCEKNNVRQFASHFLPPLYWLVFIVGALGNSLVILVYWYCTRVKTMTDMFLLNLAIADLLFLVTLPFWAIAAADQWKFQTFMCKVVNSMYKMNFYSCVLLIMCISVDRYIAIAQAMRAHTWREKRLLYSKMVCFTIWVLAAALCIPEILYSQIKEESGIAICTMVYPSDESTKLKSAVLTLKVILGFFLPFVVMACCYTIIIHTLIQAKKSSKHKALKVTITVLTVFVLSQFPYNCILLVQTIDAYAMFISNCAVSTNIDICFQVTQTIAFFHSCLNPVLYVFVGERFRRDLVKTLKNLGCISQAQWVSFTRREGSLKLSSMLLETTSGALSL

ADR1D = biological target: T6, ADR1D (Homo sapiens, UniProt P25100); assay: Binding assay ADR1D; details: 100 nM
T6 construct: Eurofins Cerep (external service)
T6 sequence (P25100 1-572): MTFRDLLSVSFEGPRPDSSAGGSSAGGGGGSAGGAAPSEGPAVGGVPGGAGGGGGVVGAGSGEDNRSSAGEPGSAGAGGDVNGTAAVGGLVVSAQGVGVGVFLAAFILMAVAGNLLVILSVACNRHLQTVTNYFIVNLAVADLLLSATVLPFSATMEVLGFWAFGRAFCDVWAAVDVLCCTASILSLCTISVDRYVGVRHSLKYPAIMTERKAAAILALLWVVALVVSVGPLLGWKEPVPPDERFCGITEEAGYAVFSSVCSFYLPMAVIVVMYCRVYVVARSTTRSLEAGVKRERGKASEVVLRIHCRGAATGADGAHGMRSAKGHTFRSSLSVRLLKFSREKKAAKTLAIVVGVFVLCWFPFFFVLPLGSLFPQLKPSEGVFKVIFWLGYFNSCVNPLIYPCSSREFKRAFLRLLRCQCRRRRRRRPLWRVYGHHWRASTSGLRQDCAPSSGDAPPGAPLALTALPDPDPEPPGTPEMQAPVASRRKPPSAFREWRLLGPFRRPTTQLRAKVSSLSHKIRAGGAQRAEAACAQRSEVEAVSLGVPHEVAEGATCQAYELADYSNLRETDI

ADR1 = biological target: T7, ADR1 (Homo sapiens, UniProt P08588); assay: Binding assay ADR1 (reference atenolol); details: 100 nM
T7 construct: Eurofins Cerep (external service)
T7 sequence (P08588 whole entry): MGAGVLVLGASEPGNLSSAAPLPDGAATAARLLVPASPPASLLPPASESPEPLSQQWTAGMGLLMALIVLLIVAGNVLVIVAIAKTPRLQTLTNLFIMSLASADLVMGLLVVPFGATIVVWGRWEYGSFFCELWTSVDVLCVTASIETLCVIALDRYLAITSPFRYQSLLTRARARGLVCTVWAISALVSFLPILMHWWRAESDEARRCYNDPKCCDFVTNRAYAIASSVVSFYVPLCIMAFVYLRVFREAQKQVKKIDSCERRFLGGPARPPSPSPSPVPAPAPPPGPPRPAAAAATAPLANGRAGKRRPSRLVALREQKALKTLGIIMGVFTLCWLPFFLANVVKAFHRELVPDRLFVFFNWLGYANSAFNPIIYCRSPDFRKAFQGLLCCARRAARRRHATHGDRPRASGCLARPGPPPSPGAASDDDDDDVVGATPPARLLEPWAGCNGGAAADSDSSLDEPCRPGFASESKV

M3 = biological target: T8, M3 (Homo sapiens, UniProt P20309); assay: Binding assay M3; details: 100 nM
T8 construct: Eurofins Cerep (external service)
T8 sequence (P20309 whole entry): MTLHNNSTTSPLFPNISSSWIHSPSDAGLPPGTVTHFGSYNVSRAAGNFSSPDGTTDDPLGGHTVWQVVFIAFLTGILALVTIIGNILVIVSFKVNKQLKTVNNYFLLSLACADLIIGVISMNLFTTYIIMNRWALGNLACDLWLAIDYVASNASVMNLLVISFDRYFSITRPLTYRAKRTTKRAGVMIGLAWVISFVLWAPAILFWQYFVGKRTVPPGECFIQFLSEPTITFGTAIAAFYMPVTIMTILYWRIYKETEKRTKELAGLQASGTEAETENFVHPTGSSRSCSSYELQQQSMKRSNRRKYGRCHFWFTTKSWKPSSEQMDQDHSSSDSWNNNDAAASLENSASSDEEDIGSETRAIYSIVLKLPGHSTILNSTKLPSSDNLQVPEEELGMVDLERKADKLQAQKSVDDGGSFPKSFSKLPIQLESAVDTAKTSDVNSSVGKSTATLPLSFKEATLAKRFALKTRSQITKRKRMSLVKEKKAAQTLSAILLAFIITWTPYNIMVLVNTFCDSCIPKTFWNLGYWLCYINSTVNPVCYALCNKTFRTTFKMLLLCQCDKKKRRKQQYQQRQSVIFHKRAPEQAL

[1] = mean of 2, read-out: % Of control specific binding, Mean
[2] = read-out: % Inhibition of control specific binding
[3] = single replicates 1 and 2, 0.1 µM
[4] = single replicates 1 and 2, read-out: % Of control specific binding
[5] = antagonist effect, 100 nM, single replicates 1st and 2nd, 0.1 µM
[6] = read-out: % Inhibition of control agonist response
[7] = read-out: Agonist Response (% of Control), Mean, antagonist effect, 100 nM, mean of 2
[8] = read-out: Agonist Response (% of Control), antagonist effect, 100 nM, single replicates 1st and 2nd

Cc1ccc(-c2nnc(SCC(=O)Nc3nccs3)[nH]2)cc1 [Compound 9]
remaining activity at 0.1 µM (ADR2A; [1]): 99.9%
inhibition at 0.1 µM (ADR2A; [2]): 0%
% Of control specific binding (ADR2A; [3]): 99.5%
remaining activity at 0.1 µM (ADR2A; [4]): 100%
remaining activity at 0.1 µM (ADR2; [1]): 102%
inhibition at 0.1 µM (ADR2; [2]): -2%
% Of control specific binding (ADR2; [3]): 108.1%
remaining activity at 0.1 µM (ADR2; [4]): 95.8%
remaining activity at 0.1 µM (ADR3; [1]): 99.1%
inhibition at 0.1 µM (ADR3; [2]): 1%
% Of control specific binding (ADR3; [3]): 95.7%
remaining activity at 0.1 µM (ADR3; [4]): 102%
Agonist Response (% of Control) (CCR3; [5]): 121.2%
inhibition at 0.1 µM (CCR3; [6]): -0.9%
activity at 0.1 µM (CCR3; [7]): 118%
activity at 0.1 µM (CCR3; [8]): 116%
Agonist Response (% of Control) (CCR8; [5]): 116.9% and 80.2%
inhibition at 0.1 µM (CCR8; [6]): 2%
activity at 0.1 µM (CCR8; [7]): 98.5%
Agonist Response (% of Control) (CXCR6; [5]): 103.1%
inhibition at 0.1 µM (CXCR6; [6]): -0.7%
activity at 0.1 µM (CXCR6; [7]): 104%
activity at 0.1 µM (CXCR6; [8]): 105%
Agonist Response (% of Control) (CCR9; [5]): 95.2%
inhibition at 0.1 µM (CCR9; [6]): 0.1%
activity at 0.1 µM (CCR9; [7]): 102%
activity at 0.1 µM (CCR9; [8]): 108%
remaining activity at 0.1 µM (ADR1D; [1]): 101%
inhibition at 0.1 µM (ADR1D; [2]): -1%
% Of control specific binding (ADR1D; [3]): 90.2% and 111.5%
remaining activity at 0.1 µM (ADR1; [1]): 91.5%
inhibition at 0.1 µM (ADR1; [2]): 9%
% Of control specific binding (ADR1; [3]): 88.9%
remaining activity at 0.1 µM (ADR1; [4]): 94%
remaining activity at 0.1 µM (M3; [1]): 106%
inhibition at 0.1 µM (M3; [2]): -6%
% Of control specific binding (M3; [3]): 110.4%
remaining activity at 0.1 µM (M3; [4]): 101%
